The source of these data is PubChem BioAssay AID859 (Vanderbilt High Throughput Screening Facility, 2007).

By IC50 is commonly meant the concentration needed to halve the response being measured.

Chain of Muscarinic acetylcholine receptor M1 (Rattus norvegicus) (P08482 whole entry, looked up): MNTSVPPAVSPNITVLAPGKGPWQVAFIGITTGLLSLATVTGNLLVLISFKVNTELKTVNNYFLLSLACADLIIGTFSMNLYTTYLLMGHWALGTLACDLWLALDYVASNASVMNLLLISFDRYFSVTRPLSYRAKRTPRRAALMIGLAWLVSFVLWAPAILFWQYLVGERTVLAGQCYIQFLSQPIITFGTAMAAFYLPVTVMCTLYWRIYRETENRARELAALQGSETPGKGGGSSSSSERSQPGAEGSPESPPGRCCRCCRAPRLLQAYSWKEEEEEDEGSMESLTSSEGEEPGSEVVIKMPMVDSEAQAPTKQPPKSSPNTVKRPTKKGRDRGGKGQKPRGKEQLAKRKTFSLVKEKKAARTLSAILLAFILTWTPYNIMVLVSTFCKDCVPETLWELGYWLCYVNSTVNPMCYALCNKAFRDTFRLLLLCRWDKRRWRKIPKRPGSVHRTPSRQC

The assay has as its target Muscarinic acetylcholine receptor M1 (Rattus norvegicus) (UniProt P08482). The assay is described as follows: M1 inhibitors against agonist EC80 response – cell-based, calcium fluorescence, dose response (AID 859). Conditions: M1-expressing cells, antagonist mode vs EC80.
For the molecule `COC(=O)Nc1ccc2c(c1)N(C(=O)CCN1CCOCC1)c1ccccc1S2`, the 50% inhibitory concentration (IC50) is 1060 nM. The result for `CN(C)CCC=C1c2ccccc2CCc2ccccc21` reads 637 nM; that for `CC[N+]1(C)CCCC(OC(=O)C(O)(c2ccccc2)c2ccccc2)C1` (stereo unspecified), 15.9 nM. As to `Cc1cccc(Cn2c(Sc3nc(C)cs3)nc3c2c(=O)[nH]c(=O)n3C)c1`, the half-inhibitory concentration (IC50) is 20.2 nM.

Turning to `Cc1c(C(=O)OC(C)CCN(C)C)oc2ccccc12` (stereo unspecified), the IC50 was 681 nM.

As for `CNCCCC1c2ccccc2C=Cc2ccccc21`, the IC50 is 1260 nM. Regarding `OC(CCN1CCCCC1)(c1ccccc1)c1ccccc1`, the IC50 was 58 nM. The value for `CCN1CCN(Cc2cc(=O)oc3cc(C)cc(C)c23)CC1` was 974 nM; that for `CCOc1nc(C#N)nc(N2CCCCC2)n1` was 1350 nM; that for `Cn1cc(CN2CCN(c3ccccc3)CC2)c2ccccc21` was 226 nM.

`Cc1nc2c(o1)CCc1ccccc1C2N1CCN(C)CC1` (stereo unspecified): the IC50 was 46.4 nM.

For `C=CCSc1nnc2c(n1)OC(c1cccnc1)N(C(C)=O)c1ccccc1-2` (stereo unspecified), the IC50 is 190 nM. The result for `Cc1ccc2c(c1)NC(=O)C(CC(=O)Nc1ccc(CN3CCC(C)CC3)cc1)O2` (stereo unspecified) reads 290 nM; that for `Cc1onc(-c2ccccc2Cl)c1C(=O)Nc1ccc(-c2nnc3n2CCCCC3)cc1`, 491 nM. The result for `CCN(CCCCOC(=O)c1ccc(OC)c(OC)c1)C(C)Cc1ccc(OC)cc1` (stereo unspecified) reads 1160 nM; that for `O=C1CC(N2CCN(C/C=C/c3ccccc3)CC2)C(=O)N1Cc1cccs1` (stereo unspecified), 846 nM.

Regarding `O=C(OCCN1CCCC1)C1(c2ccccc2)CCCC1`, the IC50 was 182 nM. The value for `CCCC(CCC)C(=O)OC1C[C@H]2CC[C@@H](C1)[N+]2(C)C` (stereo partly specified) was 302 nM; that for `CN1CCN(CCC(C#N)(c2ccccc2)c2ccccc2)CC1` was 395 nM; that for `CN(C)CCCOC(=O)C1c2ccccc2Oc2ccccc21` was 63.7 nM.

For `CCN(CC)CCOC(=O)C(c1ccccc1)c1ccccc1`, the IC50 was 327 nM. As to `c1ccc(-c2cc(-c3nnc4sc(-c5ccccn5)nn34)[nH]n2)cc1`, the concentration for half-maximal inhibition (IC50) is 414 nM.

Turning to `Clc1ccc(OCc2nnc(SCCN3CCCCC3)n2Cc2ccco2)cc1`, the IC50 is 1400 nM.

With `CCC(C)N(CCNC(=O)CC1Oc2ccc(C)cc2NC1=O)C1CCCCC1` (stereo unspecified), the half-inhibitory concentration (IC50) was 1000 nM. The result for `O=C(CN1CCN(CCOCCO)CC1)N1c2ccccc2Sc2ccc(Cl)cc21` reads 1030 nM; that for `CC1CCN(Cc2ccc(NC(=O)CC3Oc4ccccc4NC3=O)cc2)CC1` (stereo unspecified), 234 nM. With `OC(CCN1CCCC1)(c1ccccc1)C1CCCCC1` (stereo unspecified), the half-maximal inhibitory concentration (IC50) is 116 nM.

Consider `CCN1C(=O)/C(=C\N2CCCCCC2)SC1=S`, for which the half-maximal inhibitory concentration (IC50) was 438 nM. The value for `Cc1ccc2nc(NC3=NCN(CCN4CCOCC4)CN3)nc(C)c2c1` was 2.77 nM; that for `CN1CCN(C2=Nc3ccccc3Oc3ccc(Cl)cc32)CC1` was 1210 nM; that for `CN1CCCN=C1COC(=O)C(O)(c1ccccc1)C1CCCCC1` (stereo unspecified) was 12.6 nM. The result for `O=C1CC(N2CCN(c3ccc(S(=O)(=O)N4CCOCC4)cc3)CC2)C(=O)N1Cc1ccccc1` (stereo unspecified) reads 777 nM. The value for `O=C(CN1CCCC(O)C1)N1c2ccccc2Sc2ccc(C(F)(F)F)cc21` (stereo unspecified) was 766 nM; that for `CN(C)CCOC(=O)C(c1ccccc1)C1(O)CCCC1` (stereo unspecified) was 25.7 nM; that for `CN1CCC(OC(=O)C2c3ccccc3Oc3ccccc32)CC1` was 9.27 nM.

As to `CCOC(=O)Nc1ccc2c(c1)N(C(=O)N1CCN(C)CC1)c1ccccc1S2`, the IC50 was 1410 nM.
